According to article PMC8213057, “Targeting ALK2: An Open Science Approach to Developing Therapeutics for the Treatment of Diffuse Intrinsic Pontine Glioma” (Journal of Medicinal Chemistry, 2020):

Assays:
[1] = molecular target: TLK2 (Homo sapiens, UniProt Q86UE8); settings: 1 μM; Run 1, Run 2
[2] = molecular target: RSK4 (Homo sapiens, UniProt Q9UK32); settings: 1 μM; Run 1, Run 2
[3] = molecular target: CLK4 (Homo sapiens, UniProt Q9HAZ1); experiment: biochemical; settings: read-out: % enzyme activity, 1 μM; Run 1, Run 2
[4] = molecular target: T1, PKCepsilon (Homo sapiens, UniProt Q02156); settings: 1 μM; Run 1, Run 2
T1 sequence (Q02156 1-737): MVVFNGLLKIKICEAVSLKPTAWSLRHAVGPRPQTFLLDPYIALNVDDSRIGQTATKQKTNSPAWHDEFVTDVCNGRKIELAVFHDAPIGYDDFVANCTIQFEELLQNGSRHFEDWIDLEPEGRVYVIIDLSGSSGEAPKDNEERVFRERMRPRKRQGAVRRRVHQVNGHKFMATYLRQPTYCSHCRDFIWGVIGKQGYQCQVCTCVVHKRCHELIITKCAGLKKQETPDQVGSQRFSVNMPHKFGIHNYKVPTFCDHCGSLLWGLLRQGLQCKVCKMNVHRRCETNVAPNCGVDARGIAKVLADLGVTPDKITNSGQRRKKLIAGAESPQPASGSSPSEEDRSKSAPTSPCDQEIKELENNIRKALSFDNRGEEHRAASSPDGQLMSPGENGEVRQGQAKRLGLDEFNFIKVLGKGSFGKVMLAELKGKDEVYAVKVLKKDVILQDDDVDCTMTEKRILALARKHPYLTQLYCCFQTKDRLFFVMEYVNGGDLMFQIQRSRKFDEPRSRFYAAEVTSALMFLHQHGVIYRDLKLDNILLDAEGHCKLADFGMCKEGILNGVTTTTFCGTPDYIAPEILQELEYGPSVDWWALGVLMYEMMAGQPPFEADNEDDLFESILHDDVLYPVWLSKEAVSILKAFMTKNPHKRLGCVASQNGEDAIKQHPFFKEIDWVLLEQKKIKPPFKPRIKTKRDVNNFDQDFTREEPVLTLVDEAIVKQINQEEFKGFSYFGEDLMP

[5] = molecular target: T2, TAOK3/JIK (Homo sapiens, UniProt Q9H2K8); experiment: biochemical; settings: read-out: % enzyme activity, 1 μM; Run 1, Run 2
T2 sequence (Q9H2K8 1-898): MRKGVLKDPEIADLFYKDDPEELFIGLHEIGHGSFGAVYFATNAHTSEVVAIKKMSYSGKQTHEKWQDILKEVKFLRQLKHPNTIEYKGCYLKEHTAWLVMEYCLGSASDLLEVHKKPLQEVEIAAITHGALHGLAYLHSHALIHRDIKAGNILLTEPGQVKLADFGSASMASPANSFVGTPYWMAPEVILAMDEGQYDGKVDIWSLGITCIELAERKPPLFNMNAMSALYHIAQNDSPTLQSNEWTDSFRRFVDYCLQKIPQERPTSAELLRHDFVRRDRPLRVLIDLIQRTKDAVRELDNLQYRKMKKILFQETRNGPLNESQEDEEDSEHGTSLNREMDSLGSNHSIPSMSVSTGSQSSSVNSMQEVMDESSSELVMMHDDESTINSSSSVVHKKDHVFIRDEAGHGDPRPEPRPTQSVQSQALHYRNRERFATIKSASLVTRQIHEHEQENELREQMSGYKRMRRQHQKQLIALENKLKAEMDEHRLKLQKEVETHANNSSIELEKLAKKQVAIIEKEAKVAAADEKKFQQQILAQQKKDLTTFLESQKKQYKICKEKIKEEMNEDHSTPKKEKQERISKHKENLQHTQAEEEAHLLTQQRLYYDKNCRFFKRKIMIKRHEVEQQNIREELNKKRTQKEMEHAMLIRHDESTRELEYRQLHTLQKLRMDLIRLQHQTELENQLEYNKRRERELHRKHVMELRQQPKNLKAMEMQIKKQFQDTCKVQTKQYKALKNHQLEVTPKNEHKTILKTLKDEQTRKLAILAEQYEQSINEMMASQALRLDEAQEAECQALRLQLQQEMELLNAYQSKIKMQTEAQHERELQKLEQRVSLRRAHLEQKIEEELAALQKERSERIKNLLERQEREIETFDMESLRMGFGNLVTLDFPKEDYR

[6] = molecular target: T3, MKK6 (Homo sapiens, UniProt P52564); settings: 1 μM; Run 1, Run 2
T3 sequence (P52564 1-334): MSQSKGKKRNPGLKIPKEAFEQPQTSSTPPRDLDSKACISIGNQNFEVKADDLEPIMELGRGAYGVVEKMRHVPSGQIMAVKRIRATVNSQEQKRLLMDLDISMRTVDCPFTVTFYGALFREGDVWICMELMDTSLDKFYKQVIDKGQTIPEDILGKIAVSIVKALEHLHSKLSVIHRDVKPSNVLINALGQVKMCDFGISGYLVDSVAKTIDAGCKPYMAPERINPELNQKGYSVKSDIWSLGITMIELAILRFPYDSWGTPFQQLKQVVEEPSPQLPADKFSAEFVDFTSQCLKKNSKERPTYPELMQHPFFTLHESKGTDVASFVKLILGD

[7] = molecular target: CDK1/cyclin A (Homo sapiens, UniProt P06493); experiment: biochemical; settings: read-out: % enzyme activity, 1 μM; Run 1, Run 2
[8] = molecular target: LRRK2 (Homo sapiens, UniProt Q5S007); experiment: biochemical; settings: read-out: % enzyme activity, 1 μM; Run 1, Run 2
[9] = molecular target: AURORA B (Homo sapiens, UniProt Q96GD4); experiment: biochemical; settings: read-out: % enzyme activity, 1 μM; Run 1, Run 2
[10] = molecular target: CDK7/cyclin H (Homo sapiens, UniProt P50613); experiment: biochemical; settings: read-out: % enzyme activity, 1 μM; Run 1, Run 2
[11] = molecular target: PKA (Homo sapiens, UniProt P17612); settings: 1 μM; Run 1, Run 2

Sequence of CLK4 (Q9HAZ1 whole entry): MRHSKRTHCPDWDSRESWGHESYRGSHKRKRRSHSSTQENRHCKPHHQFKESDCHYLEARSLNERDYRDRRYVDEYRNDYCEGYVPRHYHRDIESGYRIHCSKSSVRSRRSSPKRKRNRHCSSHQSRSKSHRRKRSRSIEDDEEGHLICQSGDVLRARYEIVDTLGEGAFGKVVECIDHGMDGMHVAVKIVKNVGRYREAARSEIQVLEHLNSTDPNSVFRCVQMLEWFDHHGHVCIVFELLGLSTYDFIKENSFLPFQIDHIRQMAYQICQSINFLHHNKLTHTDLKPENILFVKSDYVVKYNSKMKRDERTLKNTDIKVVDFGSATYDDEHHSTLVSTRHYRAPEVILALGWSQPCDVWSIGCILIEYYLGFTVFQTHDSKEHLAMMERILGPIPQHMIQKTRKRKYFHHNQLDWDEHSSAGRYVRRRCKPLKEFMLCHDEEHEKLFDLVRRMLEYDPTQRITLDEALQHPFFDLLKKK
Sequence of RSK4 (Q9UK32 whole entry): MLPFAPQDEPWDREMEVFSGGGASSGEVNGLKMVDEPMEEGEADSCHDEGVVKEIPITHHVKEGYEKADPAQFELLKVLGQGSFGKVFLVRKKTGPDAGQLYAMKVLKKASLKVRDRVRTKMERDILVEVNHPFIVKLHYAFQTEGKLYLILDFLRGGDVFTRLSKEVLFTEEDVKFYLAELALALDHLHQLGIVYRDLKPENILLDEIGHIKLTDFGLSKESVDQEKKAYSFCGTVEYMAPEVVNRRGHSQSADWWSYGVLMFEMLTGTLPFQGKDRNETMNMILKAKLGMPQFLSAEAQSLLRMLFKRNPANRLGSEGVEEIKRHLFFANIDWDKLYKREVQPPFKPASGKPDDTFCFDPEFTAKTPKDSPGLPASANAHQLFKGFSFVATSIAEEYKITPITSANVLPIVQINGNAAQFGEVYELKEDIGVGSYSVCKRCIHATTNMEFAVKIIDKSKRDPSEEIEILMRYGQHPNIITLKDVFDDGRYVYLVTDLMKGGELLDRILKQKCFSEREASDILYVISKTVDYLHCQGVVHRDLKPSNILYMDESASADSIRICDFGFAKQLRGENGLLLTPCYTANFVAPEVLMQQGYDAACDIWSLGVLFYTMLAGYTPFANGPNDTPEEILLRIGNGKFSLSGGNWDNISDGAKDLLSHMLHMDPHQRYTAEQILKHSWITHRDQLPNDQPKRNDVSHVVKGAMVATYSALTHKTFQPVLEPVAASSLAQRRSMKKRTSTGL
Sequence of CDK1/cyclin A (P20248 whole entry): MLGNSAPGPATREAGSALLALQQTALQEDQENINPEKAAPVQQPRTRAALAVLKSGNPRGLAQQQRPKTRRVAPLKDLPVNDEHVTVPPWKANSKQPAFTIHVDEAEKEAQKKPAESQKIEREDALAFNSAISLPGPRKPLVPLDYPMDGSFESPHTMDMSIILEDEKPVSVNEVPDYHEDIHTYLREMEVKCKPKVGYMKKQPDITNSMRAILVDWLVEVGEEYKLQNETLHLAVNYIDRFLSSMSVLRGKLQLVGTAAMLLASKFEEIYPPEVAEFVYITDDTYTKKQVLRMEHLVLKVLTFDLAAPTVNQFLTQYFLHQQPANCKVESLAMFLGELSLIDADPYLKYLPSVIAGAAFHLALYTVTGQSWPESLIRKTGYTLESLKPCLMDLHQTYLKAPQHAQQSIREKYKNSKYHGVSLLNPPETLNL
Sequence of CDK1/cyclin A (P06493 whole entry): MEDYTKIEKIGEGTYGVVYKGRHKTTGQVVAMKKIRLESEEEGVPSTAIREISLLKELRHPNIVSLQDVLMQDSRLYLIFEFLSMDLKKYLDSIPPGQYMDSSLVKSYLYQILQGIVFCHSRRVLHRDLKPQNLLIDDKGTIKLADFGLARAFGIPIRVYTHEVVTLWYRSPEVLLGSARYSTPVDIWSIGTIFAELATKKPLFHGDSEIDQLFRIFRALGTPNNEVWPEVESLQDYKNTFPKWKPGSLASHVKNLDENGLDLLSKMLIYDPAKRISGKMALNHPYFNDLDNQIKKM
Sequence of LRRK2 (Q5S007 whole entry): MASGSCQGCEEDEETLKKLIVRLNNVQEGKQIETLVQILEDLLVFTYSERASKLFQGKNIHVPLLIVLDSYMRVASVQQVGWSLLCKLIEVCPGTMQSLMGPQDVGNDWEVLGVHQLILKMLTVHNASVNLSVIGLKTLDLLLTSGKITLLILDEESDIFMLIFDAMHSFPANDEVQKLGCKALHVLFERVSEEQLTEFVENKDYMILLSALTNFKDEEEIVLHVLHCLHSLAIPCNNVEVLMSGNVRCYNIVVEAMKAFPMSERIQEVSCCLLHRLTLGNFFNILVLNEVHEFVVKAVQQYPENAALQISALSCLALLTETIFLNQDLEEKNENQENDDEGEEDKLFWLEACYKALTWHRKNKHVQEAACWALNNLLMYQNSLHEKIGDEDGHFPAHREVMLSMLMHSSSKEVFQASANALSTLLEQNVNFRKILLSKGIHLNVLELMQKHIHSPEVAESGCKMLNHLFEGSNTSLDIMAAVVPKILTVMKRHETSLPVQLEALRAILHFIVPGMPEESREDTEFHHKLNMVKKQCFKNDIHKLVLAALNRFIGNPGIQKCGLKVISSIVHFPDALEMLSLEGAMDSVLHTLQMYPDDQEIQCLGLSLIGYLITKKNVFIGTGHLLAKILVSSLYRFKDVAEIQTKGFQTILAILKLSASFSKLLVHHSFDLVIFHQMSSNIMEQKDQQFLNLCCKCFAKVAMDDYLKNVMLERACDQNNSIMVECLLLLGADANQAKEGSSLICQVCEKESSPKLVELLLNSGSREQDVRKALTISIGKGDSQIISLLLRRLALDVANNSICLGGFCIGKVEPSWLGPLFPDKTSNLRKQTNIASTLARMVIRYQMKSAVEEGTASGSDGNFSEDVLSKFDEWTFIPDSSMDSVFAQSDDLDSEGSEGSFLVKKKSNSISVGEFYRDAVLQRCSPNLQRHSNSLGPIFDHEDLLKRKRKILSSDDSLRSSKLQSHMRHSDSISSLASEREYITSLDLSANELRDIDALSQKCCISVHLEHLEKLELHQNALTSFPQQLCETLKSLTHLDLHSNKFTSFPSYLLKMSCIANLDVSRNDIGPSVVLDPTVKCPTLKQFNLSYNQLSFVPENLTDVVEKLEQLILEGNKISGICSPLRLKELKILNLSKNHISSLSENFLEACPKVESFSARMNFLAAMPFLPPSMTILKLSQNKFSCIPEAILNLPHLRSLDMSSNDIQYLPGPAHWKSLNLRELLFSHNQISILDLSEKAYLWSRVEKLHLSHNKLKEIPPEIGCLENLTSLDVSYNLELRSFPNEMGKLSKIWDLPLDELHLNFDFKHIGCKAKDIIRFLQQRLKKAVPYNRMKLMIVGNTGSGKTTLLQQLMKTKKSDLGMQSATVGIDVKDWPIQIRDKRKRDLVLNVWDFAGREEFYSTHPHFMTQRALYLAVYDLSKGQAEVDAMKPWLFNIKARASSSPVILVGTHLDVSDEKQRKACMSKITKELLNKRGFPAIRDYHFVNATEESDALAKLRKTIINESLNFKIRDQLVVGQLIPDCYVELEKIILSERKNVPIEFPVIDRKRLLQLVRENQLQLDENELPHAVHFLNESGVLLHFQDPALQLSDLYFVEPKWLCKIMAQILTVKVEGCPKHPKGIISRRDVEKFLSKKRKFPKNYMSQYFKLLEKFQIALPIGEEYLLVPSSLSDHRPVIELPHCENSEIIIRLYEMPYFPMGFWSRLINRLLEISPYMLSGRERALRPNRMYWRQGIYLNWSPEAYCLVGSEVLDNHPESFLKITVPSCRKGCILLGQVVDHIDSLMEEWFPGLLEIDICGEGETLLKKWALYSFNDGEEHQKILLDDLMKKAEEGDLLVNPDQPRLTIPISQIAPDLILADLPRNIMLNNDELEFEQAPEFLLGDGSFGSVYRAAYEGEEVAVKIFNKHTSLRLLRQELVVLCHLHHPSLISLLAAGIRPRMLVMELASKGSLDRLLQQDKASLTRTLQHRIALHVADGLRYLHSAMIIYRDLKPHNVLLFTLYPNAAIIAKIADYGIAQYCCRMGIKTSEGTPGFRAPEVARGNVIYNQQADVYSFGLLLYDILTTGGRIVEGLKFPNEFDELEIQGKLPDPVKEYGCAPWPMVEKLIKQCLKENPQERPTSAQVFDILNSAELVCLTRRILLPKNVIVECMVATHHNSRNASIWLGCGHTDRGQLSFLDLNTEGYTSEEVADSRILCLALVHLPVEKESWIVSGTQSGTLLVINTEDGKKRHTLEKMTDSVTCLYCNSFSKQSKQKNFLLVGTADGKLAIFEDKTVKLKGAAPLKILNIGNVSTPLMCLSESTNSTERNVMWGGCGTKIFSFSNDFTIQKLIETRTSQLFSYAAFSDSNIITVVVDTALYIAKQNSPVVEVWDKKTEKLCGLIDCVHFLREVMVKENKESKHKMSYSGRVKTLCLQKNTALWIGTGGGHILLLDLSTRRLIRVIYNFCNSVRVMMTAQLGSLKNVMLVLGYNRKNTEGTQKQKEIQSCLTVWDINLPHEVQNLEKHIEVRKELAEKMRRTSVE
Sequence of AURORA B (Q96GD4 whole entry): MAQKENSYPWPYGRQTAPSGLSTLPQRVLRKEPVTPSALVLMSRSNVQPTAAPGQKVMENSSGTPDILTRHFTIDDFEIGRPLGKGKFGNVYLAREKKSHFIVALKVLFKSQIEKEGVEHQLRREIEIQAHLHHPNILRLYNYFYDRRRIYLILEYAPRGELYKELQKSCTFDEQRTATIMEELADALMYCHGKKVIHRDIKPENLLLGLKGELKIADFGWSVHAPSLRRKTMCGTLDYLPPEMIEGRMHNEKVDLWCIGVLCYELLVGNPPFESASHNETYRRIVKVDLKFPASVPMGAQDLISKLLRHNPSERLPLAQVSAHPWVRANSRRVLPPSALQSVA

SMILES | % enzyme activity [1] | % enzyme activity [2] | remaining activity at 1 µM [3] | % enzyme activity [4] | remaining activity at 1 µM [5] | % enzyme activity [6] | remaining activity at 1 µM [7] | remaining activity at 1 µM [8] | remaining activity at 1 µM [9] | remaining activity at 1 µM [10] | % enzyme activity [11]
COc1cc(-c2cncc(-c3ccc(N4CCN(C)CC4)cc3)c2C)cc(F)c1C(N)=O [Compound 26a, 2-Fluoro-6-methoxy-4-(4-methyl-5-(4-(4-methylpiperazin-1-yl)phenyl)pyridin-3-yl)benzamide] | 95.61% | 95.64% | 88.9% | 96.64% | 69.7% | 80.71% | 94.7% | 60.1% | 102% | 97% | 96.94%
COc1cc(-c2cncc(-c3ccc(N4C[C@@H](C)N(C)[C@@H](C)C4)cc3)c2C)cc(F)c1C(N)=O [Compound 26c, 2-Fluoro-6-methoxy-4-(4-methyl-5-(4-((3R,5S)-3,4,5-trimethylpiperazin-1-yl)phenyl)pyridin-3-yl)benzamide] | 89.84% | 94.61% | 92.6% | 105.76% | 84.5% | 79.33% | 90.8% | 78.3% | 105% | 96.1% | 95.62%
